Assay results as given in ChEMBL document CHEMBL1201862, “PubChem BioAssay data set” (2004).
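Each compound was tested at five concentrations against cells in 96-well plates for 48 hours. GI50 marks 50% less growth.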 Active and inactive are the calls of the source. No stated cut-off is given here; in the data, active = GI50 up to about 1.1 µM and inactive = higher.

How the values were obtained:
Assay in all cases: inhibition of tumour cell growth, NCI panel, 48 h
OVCAR-8 = system: OVCAR-8
Malme-3M = system: Malme-3M
SF-295 = system: SF-295
HL-60 = system: HL-60
M14 = system: M14
OVCAR-5 = system: OVCAR-5
SW-620 = system: SW-620
RPMI-8226 = system: RPMI-8226
A549 = system: A549
ACHN = system: ACHN
SNB-19 = system: SNB-19
OVCAR-3 = system: OVCAR-3
CCRF-CEM = system: CCRF-CEM
786-0 = system: 786-0
SF-539 = system: SF-539
MCF7 = system: MCF7
IGROV-1 = system: IGROV-1
UACC-62 = system: UACC-62
HT-29 = system: HT-29
NCI-H23 = system: NCI-H23
MDA-MB-435 = system: MDA-MB-435
SK-MEL-5 = system: SK-MEL-5
SF-268 = system: SF-268
HCT-15 = system: HCT-15
SR = system: SR
HCC 2998 = system: HCC 2998
COLO 205 = system: COLO 205
MOLT-4 = system: MOLT-4
HOP-92 = system: HOP-92
A498 = system: A498
NCI-H522 = system: NCI-H522
NCI/ADR-RES = system: NCI/ADR-RES
K562 = system: K562
EKVX = system: EKVX
PC-3 = system: PC-3
SN12C = system: SN12C
U-251 = system: U-251
LOX IMVI = system: LOX IMVI
T47D = system: T47D
CAKI-1 = system: CAKI-1
UO-31 = system: UO-31
HCT-116 = system: HCT-116
NCI-H226 = system: NCI-H226
SK-MEL-2 = system: SK-MEL-2
DU-145 = system: DU-145
NCI-H460 = system: NCI-H460
Hs-578T = system: Hs-578T
MDA-MB-231 = system: MDA-MB-231
OVCAR-4 = system: OVCAR-4
SNB-75 = system: SNB-75
TK-10 = system: TK-10
MDA-N = system: MDA-N
UACC-257 = system: UACC-257
RXF 393 = system: RXF 393
SK-MEL-28 = system: SK-MEL-28
SK-OV-3 = system: SK-OV-3
KM12 = system: KM12
BT-549 = system: BT-549
HOP-62 = system: HOP-62

Measured: GI50

COC(=O)C1=C(C(=O)OC)N(c2ccc(OC)cc2[N+](=O)[O-])C(c2ccc(C)cc2)=CC1c1ccc(OC)cc1OC (stereo not drawn)
4.65 µM: HCT-15
inactive: OVCAR-8 13.6 µM | Malme-3M 22.2 µM | SF-295 29 µM | HL-60 3.8 µM | M14 17.2 µM | OVCAR-5 34.5 µM | SW-620 3.88 µM | RPMI-8226 2.07 µM | A549 7.89 µM | ACHN 18.7 µM | SNB-19 34.7 µM | OVCAR-3 23.6 µM | CCRF-CEM 3.86 µM | 786-0 11.9 µM | SF-539 6.61 µM | MCF7 4.05 µM | IGROV-1 13.3 µM | UACC-62 25.2 µM | HT-29 6.53 µM | NCI-H23 22.4 µM | MDA-MB-435 5.13 µM | SK-MEL-5 26.2 µM | SF-268 32.9 µM | SR 2.28 µM | HCC 2998 8.28 µM | COLO 205 13.2 µM | MOLT-4 8.79 µM | HOP-92 47.2 µM | A498 16 µM | NCI-H522 14.1 µM | NCI/ADR-RES 22.9 µM | K562 3.16 µM | EKVX 34.5 µM | PC-3 47.6 µM | SN12C 13.6 µM | U-251 6.37 µM | LOX IMVI 2.36 µM | T47D 11.1 µM | CAKI-1 28 µM | UO-31 11.7 µM | HCT-116 10.7 µM | NCI-H226 18.3 µM | SK-MEL-2 29.6 µM | DU-145 25.2 µM | NCI-H460 24.5 µM | Hs-578T 31.7 µM | MDA-MB-231 23.3 µM | OVCAR-4 44 µM | SNB-75 18.7 µM | TK-10 18.5 µM | MDA-N 4.62 µM | UACC-257 23.1 µM | RXF 393 5.25 µM | SK-MEL-28 64.3 µM | SK-OV-3 25.8 µM | KM12 4.27 µM | BT-549 11.3 µM | HOP-62 26.4 µM

CN(CCCCN1CCCC1)CCCCN(C)C(=O)Cc1ccc(Cl)c(Cl)c1
inactive: OVCAR-8 21.3 µM | Malme-3M 17.9 µM | SF-295 19.5 µM | HL-60 17.5 µM | M14 17.2 µM | OVCAR-5 21.9 µM | SW-620 18.8 µM | RPMI-8226 5.33 µM | A549 14.4 µM | ACHN 20.7 µM | SNB-19 19.3 µM | OVCAR-3 18.2 µM | CCRF-CEM 6.22 µM | 786-0 12.3 µM | SF-539 9.29 µM | MCF7 14 µM | IGROV-1 18.2 µM | UACC-62 3.66 µM | HT-29 3.85 µM | NCI-H23 17.9 µM | MDA-MB-435 2.26 µM | SK-MEL-5 6.43 µM | SF-268 17.2 µM | SR 2.59 µM | HCC 2998 5.09 µM | COLO 205 7.8 µM | MOLT-4 4.54 µM | HOP-92 2.88 µM | A498 17.1 µM | NCI-H522 11.5 µM | NCI/ADR-RES > 100 µM | K562 2.91 µM | EKVX 20.5 µM | PC-3 16.8 µM | SN12C 19.1 µM | U-251 13.6 µM | LOX IMVI 10.6 µM | T47D 20.2 µM | CAKI-1 19.5 µM | UO-31 1.71 µM | HCT-116 14.3 µM | NCI-H226 23.7 µM | SK-MEL-2 6.07 µM | DU-145 25.2 µM | NCI-H460 14.8 µM | Hs-578T 19.5 µM | MDA-MB-231 10.1 µM | OVCAR-4 17.6 µM | SNB-75 15 µM | TK-10 18.2 µM | MDA-N 3.56 µM | UACC-257 2.52 µM | RXF 393 11.7 µM | SK-MEL-28 2 µM | SK-OV-3 23.6 µM | KM12 13.1 µM | BT-549 18.5 µM | HOP-62 16.3 µM
21.1 µM: HCT-15
